Reference: PMC5605198, “MELK is not necessary for the proliferation of basal-like breast cancer cells” (eLife, 2017)
Read-outs that look alike come from different tables or passages of the source.

Key:
MELK [1] = molecular target: T1, MELK (Homo sapiens, UniProt Q14680); test: Z’-LYTE enzymatic assay; assay type: biochemical
CDK7 = CDK7 (Homo sapiens, UniProt P50613); test: Adapta kinase assay; conditions: Adapta assay at [ATP]=apparent Km; read-out: Biochemical IC50 CDK7
[2] = system: select off-target kinases; test: Off-target kinase inhibition (Z’-LYTE/Adapta), comparison; assay type: biochemical; conditions: from Table 1 IC50 values
MLK3 = MLK3 (Homo sapiens, UniProt Q16584); test: ICKP radiometric kinase assay; assay type: biochemical; conditions: read-out: % AR (% kinase activity remaining)
MLK3, sequence (Q16584 whole entry): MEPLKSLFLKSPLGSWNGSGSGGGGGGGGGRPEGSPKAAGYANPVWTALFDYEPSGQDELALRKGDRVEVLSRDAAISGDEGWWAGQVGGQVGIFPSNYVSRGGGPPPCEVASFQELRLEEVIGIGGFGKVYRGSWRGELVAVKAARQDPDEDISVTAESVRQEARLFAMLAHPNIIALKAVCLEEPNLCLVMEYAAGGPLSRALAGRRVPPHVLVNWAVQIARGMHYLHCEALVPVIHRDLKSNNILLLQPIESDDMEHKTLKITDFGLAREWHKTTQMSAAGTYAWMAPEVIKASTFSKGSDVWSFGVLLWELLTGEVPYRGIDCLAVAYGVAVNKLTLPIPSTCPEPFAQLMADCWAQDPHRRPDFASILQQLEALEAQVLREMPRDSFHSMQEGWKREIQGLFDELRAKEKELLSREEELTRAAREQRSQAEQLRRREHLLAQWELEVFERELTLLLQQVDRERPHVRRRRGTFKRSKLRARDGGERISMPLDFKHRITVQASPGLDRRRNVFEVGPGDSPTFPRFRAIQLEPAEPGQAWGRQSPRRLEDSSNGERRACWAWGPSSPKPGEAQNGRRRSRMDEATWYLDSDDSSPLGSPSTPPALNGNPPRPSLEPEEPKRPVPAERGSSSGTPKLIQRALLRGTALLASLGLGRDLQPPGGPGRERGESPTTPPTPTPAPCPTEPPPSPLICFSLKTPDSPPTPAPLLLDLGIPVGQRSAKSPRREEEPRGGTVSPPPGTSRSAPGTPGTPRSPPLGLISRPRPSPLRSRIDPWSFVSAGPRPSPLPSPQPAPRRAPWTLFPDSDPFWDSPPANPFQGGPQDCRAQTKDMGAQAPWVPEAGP

MELK [3] = molecular target: T1, MELK; test: Cellular kinase engagement assay (KiNativ), ATP-biotin probe pull-down; assay type: cell-based; conditions: MDA-MB-468 cells, different doses, with MG132, 1 hour
Description: (§1) After confirming HTH-01-091 as a potent MELK inhibitor in biochemical assays, we next investigated whether HTH-01-091 engages MELK in cells. We performed a KiNativ assay to measure HTH-01-091 engagement with the ATP binding pocket of MELK, which would prevent active-site labeling from a lysine-reactive ATP-biotin probe ([Patricelli et al., 2007]). […] As a control, ERK1/2 pull-down was not affected by HTH-01-091 treatment, consistent with our profiling data showing no binding affinity of HTH-01-091 to ERK1/2 (Figure 2A, Figure 1—source data 1).
(§2) Figure 2. […] (A) Immunoblots analyzing the pull-down levels of MELK and ERK1/2 by ATP-biotin probes and streptavidin beads from MDA-MB-468 cells treated with different doses of HTH-01-091 and […] MG132 for 1 hour. […] See also Figure 2—figure supplement 1 for rescue experiments using carfilzomib and MLN4924. (C) 3-day antiproliferation assays of HTH-01-091 and other MELK inhibitors tested in MDA-MB-468 (basal) and ZR-75-1 (luminal) cells. Values represent two independent experimental mean ±SD. Error bars shorter than the height of the symbol are not drawn. […] Figure 2—figure supplement 1. […]
(§3) MDA-MB-468 cells on 10 cm plates were treated with HTH-01-091 at indicated concentrations and MG132 (10 μM) for an hour. […] The beads were boiled at 95°C for 10 min and analyzed by immunoblotting.

ERK1/2 = test: as above; assay type: cell-based; conditions: MDA-MB-468 cells, with MG132, 1 hour
Description: as §1, §2, §3

141 kinases = test: ICKP panel radiometric kinase profiling (summary); assay type: biochemical; conditions: radioactive filter-binding assay; kinases inhibited more strongly than MELK in the ICKP panel; read-out: IC50 values of potential off-target kinases
AMPK = test: ICKP radiometric kinase assay; conditions: 1 μM
MELK [4] = molecular target: T1, MELK; conditions: ref Chung et al., 2012; cited from earlier work
[5] = system: WT and MELK−/− MDA-MB-468 cells; test: 3-day proliferation assays comparing WT and MELK−/− cells; assay type: cell-based; conditions: clone E9 vs clone C7
Description: We compared a WT clone (clone E9) and a MELK−/− clone (clone C7) with the parental cell line, and observed no significant difference in growth rate or cell cycle distribution (Figure 3A,B,C).
Figure 3. WT and MELK−/− MDA-MB-468 cells have similar growth rates, cell cycle distribution, and sensitivity to MELK inhibitors. (A) Immunoblots for MELK and GAPDH in WT (clone E9) and MELK−/− (clone C7) clones isolated from MDA-MB-468 cells transfected with sgMELK-3 and Cas9. See also Figure 3—figure supplements 1 and 2, and Figure 3—source data 1 for the details of the generation of MELK−/− clones. (B) 5-day proliferation curves comparing the growth rates of parental, WT, and MELK−/− MDA-MB-468 cells. Values represent two independent experimental mean ±SD. (C) Cell cycle analysis comparing WT and MELK−/− MDA-MB-468 cells. Values represent triplicate mean ±SD. […] Values represent duplicate mean ±SD. Error bars shorter than the height of the symbol are not drawn. Figure 3—source data 1. Genotype analysis of single cell clones selected from MDA-MB-468 cells transfected with Cas9/sgMELK-3. Figure 3—figure supplement 1. CRISPR/Cas9-mediated knockout of MELK in MDA-MB-468 cells. (A) Tracking of Indels by Decomposition (TIDE) analysis ([Brinkman et al., 2014]) of MDA-MB-468 cells transfected with Cas9/sgMELK-3 and enriched by the transfection marker OFP. […]

T1 sequence (Q14680 whole entry): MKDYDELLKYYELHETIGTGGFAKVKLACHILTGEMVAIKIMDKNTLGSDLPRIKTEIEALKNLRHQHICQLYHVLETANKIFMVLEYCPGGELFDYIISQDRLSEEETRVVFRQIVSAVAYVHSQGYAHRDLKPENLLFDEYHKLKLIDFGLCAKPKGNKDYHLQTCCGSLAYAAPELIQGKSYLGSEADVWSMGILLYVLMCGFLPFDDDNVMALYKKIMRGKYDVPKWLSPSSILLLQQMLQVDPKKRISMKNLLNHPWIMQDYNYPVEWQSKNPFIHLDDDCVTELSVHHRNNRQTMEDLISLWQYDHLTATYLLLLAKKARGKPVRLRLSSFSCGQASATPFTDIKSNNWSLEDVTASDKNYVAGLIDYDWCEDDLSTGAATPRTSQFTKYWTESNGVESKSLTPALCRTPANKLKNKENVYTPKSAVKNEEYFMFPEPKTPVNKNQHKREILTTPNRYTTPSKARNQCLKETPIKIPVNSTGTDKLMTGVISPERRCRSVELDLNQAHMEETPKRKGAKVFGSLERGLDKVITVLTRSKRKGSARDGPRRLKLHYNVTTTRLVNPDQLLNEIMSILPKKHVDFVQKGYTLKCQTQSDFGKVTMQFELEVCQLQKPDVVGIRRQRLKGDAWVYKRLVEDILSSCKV
CDK7, sequence (P50613 whole entry): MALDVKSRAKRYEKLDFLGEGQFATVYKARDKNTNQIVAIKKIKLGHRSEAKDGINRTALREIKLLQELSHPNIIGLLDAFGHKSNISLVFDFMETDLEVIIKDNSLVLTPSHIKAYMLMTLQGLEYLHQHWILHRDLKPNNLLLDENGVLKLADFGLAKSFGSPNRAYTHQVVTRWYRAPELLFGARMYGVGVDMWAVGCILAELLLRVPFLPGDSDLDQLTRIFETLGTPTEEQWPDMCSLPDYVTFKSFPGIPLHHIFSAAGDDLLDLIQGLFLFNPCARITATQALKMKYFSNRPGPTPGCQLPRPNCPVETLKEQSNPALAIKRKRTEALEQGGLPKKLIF
CDK7, sequence (P51946 whole entry partner): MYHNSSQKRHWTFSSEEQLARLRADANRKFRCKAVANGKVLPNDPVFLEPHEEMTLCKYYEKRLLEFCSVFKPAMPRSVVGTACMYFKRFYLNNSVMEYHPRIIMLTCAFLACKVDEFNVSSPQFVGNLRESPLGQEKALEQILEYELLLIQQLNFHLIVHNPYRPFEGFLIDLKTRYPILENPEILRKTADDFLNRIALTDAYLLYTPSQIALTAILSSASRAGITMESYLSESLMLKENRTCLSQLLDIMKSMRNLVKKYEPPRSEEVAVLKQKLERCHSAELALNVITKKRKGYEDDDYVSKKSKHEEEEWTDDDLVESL
CDK7, sequence (P51948 whole entry partner): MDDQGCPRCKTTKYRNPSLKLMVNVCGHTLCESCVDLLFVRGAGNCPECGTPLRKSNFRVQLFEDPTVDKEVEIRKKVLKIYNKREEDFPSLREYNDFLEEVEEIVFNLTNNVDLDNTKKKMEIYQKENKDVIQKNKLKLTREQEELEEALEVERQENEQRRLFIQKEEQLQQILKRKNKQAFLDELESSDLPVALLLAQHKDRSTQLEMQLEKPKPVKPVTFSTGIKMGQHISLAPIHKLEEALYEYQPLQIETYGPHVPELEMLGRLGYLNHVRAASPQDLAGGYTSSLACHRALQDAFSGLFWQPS

In the case of `CN(C)C[C@H]1CC[C@H](N2C(=O)NCc3cnc4ccc(-c5cc(Cl)c(O)c(Cl)c5)cc4c32)CC1` [HTH-01-091, 9-(3,5-dichloro-4-hydroxyphenyl)-1-(trans-4-((dimethylamino)methyl)cyclohexyl)-3,4-dihydropyrimido[5,4 c]quinolin-2(1H)-one], the IC50 (MELK [1]; Z’-LYTE assay at [ATP]=apparent Km, read-out: Biochemical IC50 MELK) is reported as 10.5 nM, the IC50 (MELK [1]; measured by Z’LYTE biochemical assay, class symbols in Figure 2C, read-out: Potency (MELK)) is reported as less than 20 nM and the IC50 (MELK [1]; note column of Table 3, read-out: Note: MELK IC50) is reported as 10.5 nM. The IC50 (CDK7) was 1230 nM, the “reduced inhibition of the select off-target kinases compared with JW-7-25-1” value [2] was 20- to 140 fold and the remaining activity at 1 µM (MLK3) was 54%. The “MELK pull-down by streptavidin beads (ATP-biotin probe)” value (MELK [3]) was “dose-dependently decreased MELK pull-down”, the “ERK1/2 pull-down (control)” value (ERK1/2) was “not affected” and the IC50 (141 kinases) was 42 to 109 nM.

For `CC(=O)c1cnc2ccc(-c3cc(Cl)c(O)c(Cl)c3)nc2c1N[C@H]1CC[C@H](CN(C)C)CC1` [OTSSP167], the “% AR (% kinase activity remaining)” value (AMPK) is given as 2%, the “activity against MELK” value (MELK [4]) is given as “subnanomolar” and the “difference in sensitivity between WT and MELK−/− cells” value [5] is given as “did not observe differences in cell viability”.
